Tested on: neuromuscular block, induced by the muscle relaxant rocuronium bromide (Roc)
Assay: Reversal of neuromuscular blockade in anaesthetized guinea pigs in vivo
Settings: for concentration at maximum reversal (at conc.) / % max reversal: anaesthetized guinea pigs, rocuronium bromide steady-state block; for concentration at maximum reversal (at conc.): dose of reversal agent at which % max reversal was seen; for % max reversal: maximum reversal; for ED50: dose producing 50% reversal of steady-state neuromuscular block: anaesthetized male Dunkin-Hartley guinea pigs, steady-state block of 85-90% by continuous rocuronium bromide infusion, reversal agent given by jugular vein catheter, M. gastrocnemius contractions
Procedure: Reversal of Neuromuscular Blockade in Anaesthetized Guinea Pigs in vivo
Male Dunkin-Hartley guinea pigs (bodyweight: 600-900 g) were anaesthetized by i.p. administration of 10 mg/kg pentobarbitone and 1000 mg/kg urethane. After tracheotomy, the animals were artificially ventilated using a Harvard small animal ventilator. A catheter was placed into the carotid artery for continuous monitoring of arterial blood pressure and the taking of blood samples for blood gas analysis. Heart rate was derived from the blood pressure signal. The sciatic nerve was stimulated (rectangular pulses of 0.5 ms duration at 10 s (0.1 Hz) intervals at a supramaximal voltage, using a Grass S88 Stimulator) and the force of M. gastrocnemius contractions was measured using a Grass FT03 force-displacement transducer. Contractions, blood pressure and heart rate were recorded on a multichannel Grass 7D recorder. Catheters were placed in both jugular veins. One catheter was used for the continuous infusion of a neuromuscular blocking agent. The infusion rate of the neuromuscular blocking agent was increased until a steady-state block of 85-90% was obtained. The other catheter was used for administration of increasing doses of the reversal agent. During continuous infusion of the neuromuscular blocking agent, single doses of increasing concentration of reversal agent were given. At the end of the experiment, the measured force of muscle contractions was plotted against the concentration of reversal agent, and using regression analysis techniques, the 50% reversal concentration was calculated. Results for the reversal of the neuromuscular block, induced by the muscle relaxant rocuronium bromide (Roc), by the 6-mercapto-cyclodextrin derivatives of Examples 1-19 are presented in Table I. For comparison, the reversal activity of the parent compounds β-cyclodextrin and γ-cyclodextrin are included as well.

SMILES	concentration at maximum reversal (at conc.)	% max reversal	ED50: dose producing 50% reversal of steady-state neuromuscular block
O=C([O-])CCCSCC1OC2OC3C(CSCCCC(=O)[O-])OC(OC4C(CSCCCC(=O)[O-])OC(OC5C(CSCCCC(=O)[O-])OC(OC6C(CSCCCC(=O)[O-])OC(OC7C(CSCCCC(=O)[O-])OC(OC8C(CSCCCC(=O)[O-])OC(OC1C(O)C2O)C(O)C8O)C(O)C7O)C(O)C6O)C(O)C5O)C(O)C4O)C(O)C3O.[Na+].[Na+].[Na+].[Na+].[Na+].[Na+].[Na+] (stereo not drawn) [example 16, 6-Per-deoxy-6-per(3-carboxypropyl)thio-β-cyclodextrin, Sodium Salt]	(3.2) μmol · kg^−1	100%	0.5 µmol/kg
O=C([O-])CCSC[C@H]1O[C@@H]2O[C@H]3[C@H](O)[C@@H](O)[C@@H](O[C@H]4[C@H](O)[C@@H](O)[C@@H](O[C@H]5[C@H](O)[C@@H](O)[C@@H](O[C@H]6[C@H](O)[C@@H](O)[C@@H](O[C@H]7[C@H](O)[C@@H](O)[C@@H](O[C@H]8[C@H](O)[C@@H](O)[C@@H](O[C@H]9[C@H](O)[C@@H](O)[C@@H](O[C@H]1[C@H](O)[C@H]2O)O[C@@H]9CSCCC(=O)[O-])O[C@@H]8CSCCC(=O)[O-])O[C@@H]7CSCCC(=O)[O-])O[C@@H]6CSCCC(=O)[O-])O[C@@H]5CSCCC(=O)[O-])O[C@@H]4CSCCC(=O)[O-])O[C@@H]3CSCCC(=O)[O-].[Na+].[Na+].[Na+].[Na+].[Na+].[Na+].[Na+].[Na+] [example 4, 6-Per-deoxy-6-per-(2-carboxyethyl)thio-γ-cyclodextrin, Sodium Salt]	(0.53) μmol · kg^−1	97%	0.09 µmol/kg
O=C([O-])c1ccc(SC[C@H]2O[C@@H]3O[C@H]4[C@H](O)[C@@H](O)[C@@H](O[C@H]5[C@H](O)[C@@H](O)[C@@H](O[C@H]6[C@H](O)[C@@H](O)[C@@H](O[C@H]7[C@H](O)[C@@H](O)[C@@H](O[C@H]8[C@H](O)[C@@H](O)[C@@H](O[C@H]9[C@H](O)[C@@H](O)[C@@H](O[C@H]%10[C@H](O)[C@@H](O)[C@@H](O[C@H]2[C@H](O)[C@H]3O)O[C@@H]%10CSc2ccc(C(=O)[O-])cc2)O[C@@H]9CSc2ccc(C(=O)[O-])cc2)O[C@@H]8CSc2ccc(C(=O)[O-])cc2)O[C@@H]7CSc2ccc(C(=O)[O-])cc2)O[C@@H]6CSc2ccc(C(=O)[O-])cc2)O[C@@H]5CSc2ccc(C(=O)[O-])cc2)O[C@@H]4CSc2ccc(C(=O)[O-])cc2)cc1.[Na+].[Na+].[Na+].[Na+].[Na+].[Na+].[Na+].[Na+] [example 8, 6-Per-deoxy-6-per-(4-carboxyphenyl)thio-γ-cyclodextrin, Sodium Salt]	(0.48) μmol · kg^−1	95%	0.10 µmol/kg
CC(CSC[C@H]1O[C@@H]2O[C@H]3[C@H](O)[C@@H](O)[C@@H](O[C@H]4[C@H](O)[C@@H](O)[C@@H](O[C@H]5[C@H](O)[C@@H](O)[C@@H](O[C@H]6[C@H](O)[C@@H](O)[C@@H](O[C@H]7[C@H](O)[C@@H](O)[C@@H](O[C@H]8[C@H](O)[C@@H](O)[C@@H](O[C@H]9[C@H](O)[C@@H](O)[C@@H](O[C@H]1[C@H](O)[C@H]2O)O[C@@H]9CSCC(C)C(=O)[O-])O[C@@H]8CSCC(C)C(=O)[O-])O[C@@H]7CSCC(C)C(=O)[O-])O[C@@H]6CSCC(C)C(=O)[O-])O[C@@H]5CSCC(C)C(=O)[O-])O[C@@H]4CSCC(C)C(=O)[O-])O[C@@H]3CSCC(C)C(=O)[O-])C(=O)[O-].[Na+].[Na+].[Na+].[Na+].[Na+].[Na+].[Na+].[Na+] (stereo partly drawn) [example 15, 6-Per-deoxy-6-per(2-carboxypropyl)thio-γ-cyclodextrin, Sodium Salt]	(0.48) μmol · kg^−1	103%	0.10 µmol/kg
OC1C2OC(CSCCCc3nnn[n-]3)C(OC3OC(CSCCCc4nnn[n-]4)C(OC4OC(CSCCCc5nnn[n-]5)C(OC5OC(CSCCCc6nnn[n-]6)C(OC6OC(CSCCCc7nnn[n-]7)C(OC7OC(CSCCCc8nnn[n-]8)C(OC8OC(CSCCCc9nnn[n-]9)C(OC9OC(CSCCCc%10nnn[n-]%10)C(O2)C(O)C9O)C(O)C8O)C(O)C7O)C(O)C6O)C(O)C5O)C(O)C4O)C(O)C3O)C1O.[Na+].[Na+].[Na+].[Na+].[Na+].[Na+].[Na+].[Na+] (stereo not drawn) [example 19, 6-Per-deoxy-6-per(3-(tetrazol-5-yl)propyl)thio-γ-cyclodextrin, Sodium Salt]	(1.2) μmol · kg^−1	109%	0.22 µmol/kg
OCCOCCSCC1OC2OC3C(CSCCOCCO)OC(OC4C(CSCCOCCO)OC(OC5C(CSCCOCCO)OC(OC6C(CSCCOCCO)OC(OC7C(CSCCOCCO)OC(OC8C(CSCCOCCO)OC(OC9C(CSCCOCCO)OC(OC1C(O)C2O)C(O)C9O)C(O)C8O)C(O)C7O)C(O)C6O)C(O)C5O)C(O)C4O)C(O)C3O (stereo not drawn) [example 11, 6-Per-deoxy-6-per(5-hydroxy-3-oxa-pentyl)thio-γ-cyclodextrin]	(2.1) μmol · kg^−1	92%	0.47 µmol/kg
O=C([O-])c1ccccc1C(=O)NCCSC[C@H]1O[C@@H]2O[C@H]3[C@H](O)[C@@H](O)[C@@H](O[C@H]4[C@H](O)[C@@H](O)[C@@H](O[C@H]5[C@H](O)[C@@H](O)[C@@H](O[C@H]6[C@H](O)[C@@H](O)[C@@H](O[C@H]7[C@H](O)[C@@H](O)[C@@H](O[C@H]8[C@H](O)[C@@H](O)[C@@H](O[C@H]9[C@H](O)[C@@H](O)[C@@H](O[C@H]1[C@H](O)[C@H]2O)O[C@@H]9CSCCNC(=O)c1ccccc1C(=O)[O-])O[C@@H]8CSCCNC(=O)c1ccccc1C(=O)[O-])O[C@@H]7CSCCNC(=O)c1ccccc1C(=O)[O-])O[C@@H]6CSCCNC(=O)c1ccccc1C(=O)[O-])O[C@@H]5CSCCNC(=O)c1ccccc1C(=O)[O-])O[C@@H]4CSCCNC(=O)c1ccccc1C(=O)[O-])O[C@@H]3CSCCNC(=O)c1ccccc1C(=O)[O-].[Na+].[Na+].[Na+].[Na+].[Na+].[Na+].[Na+].[Na+] [example 12, 6-Per-deoxy-6-per[(2(2-carboxybenzoyl)amino)ethyl]thio-γ-cyclodextrin, Sodium Salt]	(0.48) μmol · kg^−1	95%	0.085 µmol/kg
NC(=O)CCCSCC1OC2OC3C(CSCCCC(N)=O)OC(OC4C(CSCCCC(N)=O)OC(OC5C(CSCCCC(N)=O)OC(OC6C(CSCCCC(N)=O)OC(OC7C(CSCCCC(N)=O)OC(OC8C(CSCCCC(N)=O)OC(OC9C(CSCCCC(N)=O)OC(OC1C(O)C2O)C(O)C9O)C(O)C8O)C(O)C7O)C(O)C6O)C(O)C5O)C(O)C4O)C(O)C3O (stereo not drawn) [example 10, 6-Per-deoxy-6-per(3-amidopropyl)thio-γ-cyclodextrin]	(33) μmol · kg^−1	94%	0.57 µmol/kg
